Data published in patent US20160310454A1, “LIVER X RECEPTOR AGONISTS IN THE TREATMENT OF EMPHYSEMA” (priority 2013, published 2016).

How the values were obtained:
[1] = system: human peripheral blood monocytes differentiated to macrophages, 5% CSE; test: Human monocyte-derived macrophages treated with 5% CSE with or without LXR agonist; assay type: cell-based; details: LXR agonist 3 μM
Description: FIG. 21. Downregulation of ABC transporters in Chronic Obstructive Pulmonary Disease (COPD) as potential therapeutic target with LXR agonist. (A.) (Left) mRNA expression analysis of ABCA1 G1 in lungs of patients with moderate (after lung volume reduction) and severe COPD (after lung transplantation) and (Right) mRNA expression analysis of ABCA1/G1 in lungs of patients with moderate and severe COPD (n=7). (B.) mRNA analysis of ABCA1, ABCG1, MMP9, (C.) MMP-2 and 9 activity assayed by gelatin zymography in human peripheral blood monocytes differentiated to macrophages in vitro by 3 days treatment with M-CSF (10Ong/m1). After differentiation process human macrophages were treated with 5% CSE with or without LXR agonist (T0901317-Cayman) treatment in 3 μM concentration. β-Actin was used as a housekeeping gene control for RT-PCR. Values are presented as statistically significant when *p<0.05, **p<0.01, ***p<0.001 when compared to controls and #p<0.05 compared Co LXR treated human macrophages.
To prepare cigarette (CSE), the smoke from one cigarette (1.1 mg of nicotine, 15 mg of tar) was passed through 25 mls of phosphate buffered saline (PBS) (Mercer et al., 2004). The pH of the extracted solution was adjusted to 7.4 and then filtered (Mercer et al., 2004). CSE was added to the media at concentrations up to 5% (vol/vol) (Mercer et al., 2004).

[2] = In vivo bioavailability of LXR agonist in lung and serum (LC/MS/MS); set-up: species or system mouse
Description: FIG. 23. In vivo bioavailability of LXR agonist (T0901317) in the lung and serum after intraperitoneal (IP) and custom made diet administration. (A.) T0901317 LC/MS/MS Chromatogram showing no difference among standard and samples in the peak shape and retension time. (B.) Table representing levels of the administered drug in serum and lungs of AKR/J mice by IP (2 and 24 hours post drug administration) and in custom made diet (Research Diets Inc, 0.015% w/w). The result was normalized by using serum volume and lung tissue weight. No T0901317 was detected in control serum and lung.

[3] = target: T1, farnesoid X receptor (FXR (NR4H4)) (Homo sapiens, UniProt Q96RI1); details: cited from earlier work
T1 sequence (Q96RI1 1-486): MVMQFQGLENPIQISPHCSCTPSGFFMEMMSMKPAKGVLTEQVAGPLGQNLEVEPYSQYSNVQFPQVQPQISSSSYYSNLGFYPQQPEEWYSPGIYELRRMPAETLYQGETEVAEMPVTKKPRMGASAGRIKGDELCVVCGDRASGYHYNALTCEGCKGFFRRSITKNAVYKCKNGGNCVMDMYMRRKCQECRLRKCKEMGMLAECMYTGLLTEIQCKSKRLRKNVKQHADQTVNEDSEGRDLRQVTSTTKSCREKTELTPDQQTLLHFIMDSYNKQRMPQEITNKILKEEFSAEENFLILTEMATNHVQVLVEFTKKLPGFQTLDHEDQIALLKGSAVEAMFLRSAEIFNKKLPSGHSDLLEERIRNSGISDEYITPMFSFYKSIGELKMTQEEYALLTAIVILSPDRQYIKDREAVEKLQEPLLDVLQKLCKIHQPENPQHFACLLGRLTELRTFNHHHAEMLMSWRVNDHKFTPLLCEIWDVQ

In the case of `O=S(=O)(c1ccccc1)N(CC(F)(F)F)c1ccc(C(O)(C(F)(F)F)C(F)(F)F)cc1` [T0901317, N-(2,2,2-trifluoroethyl)-N-[4-[2,2,2-trifluoro-1-hydroxy-1-(trifluoromethyl)ethyl]phenyl]-benzenesulfonamide], the “ABC transporter levels (ABCA1, ABCG1 mRNA)” value [1] is reported as “restored”, the “CSE increased MMP-9 expression and activity” value [1] is reported as “inhibited” and the “drug detected in the lungs” value ([2]; after IP administration, acute 10 day model) is reported as “detected”. The “drug detected in the lungs” value ([2]; chronic 5 months model (diet 0.015% w/w), text prints after IP administration) was “detected”, the “activation of FXR compared with chenodeoxycholic acid” value [3] was “more potently than a natural bile acid FXR ligand, chenodeoxycholic acid” and the “potency as activator of LXR versus FXR” value [3] was “much more potent activator of LXR than FXR”.
